Where two headings read alike, the source gives them in different places.
Biological target: human recombinant ATX (Homo sapiens, UniProt Q13822)
Assay: Autotaxin (ATX) activity Quanta Red assay
Format: biochemical
How it was run: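 Recombinant human ATX reaction stopped after 2 h with Quanta Red stop solution; fluorescence read at […]. Controls with DMSO, with and without ATX; IC50 in duplicate.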

[1] = read-out: Activity (ATX activity, Quanta Red assay; IC50)
[2] = Table 2: additional compounds tested for ATX activity (Quanta Red Assay), read-out: Activity

Structure (SMILES) | IC50 [1] [nM] | IC50 [2] [nM]
O=C(CCc1nc2cccnc2n1Cc1ccc(F)cc1)NC(CO)c1ccc(F)cc1 (centres unmarked) [Example 47, 3-[3-(4-Fluoro-benzyl)-3H-imidazo[4,5-b]pyridin-2-yl]-N-[1-(4-fluoro-phenyl)-2-hydroxy-ethyl]-propionamide] | 19 | 
Cc1ccc([C@H](C)NC(=O)CCc2nc3ccncc3n2Cc2ccc(F)cc2)cc1 [Example 131, 3-[3-(4-Fluoro-benzyl)-3H-imidazo[4,5-c]pyridin-2-yl]-N-((S)-1-p-tolyl-ethyl)-propionamide] | 23 | 
COc1ccc(Cn2c(CCC(=O)Nc3ccc(F)cc3)nc3cccnc32)cc1 [Example 227, N-(4-Fluoro-phenyl)-3-[3-(4-methoxy-benzyl)-3H-imidazo[4,5-b]pyridin-2-yl]-propionamide] |  | 3830
CC[C@H](NC(=O)CCc1nc2cccnc2n1Cc1ccc(OC)cc1)c1ccccc1 [Example 93, 3-[3-(4-Methoxy-benzyl)-3H-imidazo[4,5-b]pyridin-2-yl]-N-((S)-1-phenyl-propyl)-propionamide] | 15 | 
O=C(CCc1nc2cccnc2n1Cc1ccc(F)cc1)N[C@H](CO)c1ccccc1 [Example 64, 3-[3-(4-Fluoro-benzyl)-3H-imidazo[4,5-b]pyridin-2-yl]-N-((S)-2-hydroxy-1-phenyl-ethyl)-propionamide] | 144 | 
O=C(CCc1nc2cccnc2n1Cc1ccc(F)c(F)c1)NCc1ccccn1 [Example 75, 3-[3-(3,4-Difluoro-benzyl)-3H-imidazo[4,5-b]pyridin-2-yl]-N-pyridin-2-ylmethyl-propionamide] | 424 | 
C[C@H](NC(=O)CCc1nc2cccnc2n1Cc1ccc(Br)cc1)c1ccc(F)cc1 [Example 16, 3-[3-(4-Bromo-benzyl)-3H-imidazo[4,5-b]pyridin-2-yl]-N-[(S)-1-(4-fluoro-phenyl)-ethyl]-propionamide] | 3 | 
O=C(CCc1nc2cccnc2n1Cc1ccc(F)c(F)c1)N[C@@H]1c2ccccc2C[C@H]1O [Example 59, 3-[3-(3,4-Difluoro-benzyl)-3H-imidazo[4,5-b]pyridin-2-yl]-N-((1R,2R)-2-hydroxy-indan-1-yl)-propionamide] | 63 | 
O=C(CCc1nc2cccnc2n1Cc1ccc(F)c(F)c1)NC(CO)c1ccc(OC(F)(F)F)cc1 (centres unmarked) [Example 39, 3-[3-(3,4-Difluoro-benzyl)-3H-imidazo[4,5-b]pyridin-2-yl]-N-[2-hydroxy-1-(4-trifluoromethoxy-phenyl)-ethyl]-propionamide] | 7 | 
CCOc1ccc(CCNC(=O)CCc2nc3cccnc3n2Cc2ccccc2)cc1 [Example 225, 3-(3-Benzyl-3H-imidazo[4,5-b]pyridin-2-yl)-N-[2-(4-ethoxy-phenyl)-ethyl]-propionamide] |  | 708
O=C(CCc1nc2cccnc2n1Cc1ccc(OC(F)(F)F)cc1)NCc1ccc(Cl)cc1 [Example 18, N-(4-Chloro-benzyl)-3-[3-(4-trifluoromethoxy-benzyl)-3H-imidazo[4,5-b]pyridin-2-yl]-propionamide] | 3 | 
O=C(CCc1nc2cccnc2n1Cc1ccc(F)c(F)c1)N[C@H]1CCc2ccccc21 [Example 55, 3-[3-(3,4-Difluoro-benzyl)-3H-imidazo[4,5-b]pyridin-2-yl]-N-(S)-indan-1-yl-propionamide] | 40 | 
O=C(CCc1nc2cccnc2n1Cc1ccc(F)c(F)c1)NC[C@@H](O)c1ccccc1 [Example 65, 3-[3-(3,4-Difluoro-benzyl)-3H-imidazo[4,5-b]pyridin-2-yl]-N-((S)-2-hydroxy-2-phenyl-ethyl)-propionamide] | 155 | 
C[C@@H]1CN(c2ccc([C@H](C)NC(=O)CCc3nc4cccnc4n3Cc3ccc(OC(F)(F)F)cc3)cc2)CCN1 [Example 174, N-{(S)-1-[4-((R)-3-Methyl-piperazin-1-yl)-phenyl]-ethyl}-3-[3-(4-trifluoromethoxy-benzyl)-3H-imidazo[4,5-b]pyridin-2-yl]-propionamide] | 2 | 

— patent publication US11453666B2, “Autotaxin inhibitory compounds” (Cancer Research Technology Limited, priority 2015, dated 2022)
